# Assay: gradient 5% acetonitrile 3 min, to 50% in 2 min, to 85% in 15 min, held 3 min, 100 µL/min
# Details: column: Zorbax Extend-C18 2.1 x 50 mm; eluents: water / acetonitrile, 0.1% formic acid
# Outline: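 Values are retention times taken from adduct peaks that software picked and an analyst inspected. The pure standards were run as mixtures of ~100 molecules on HPLC linked to a quadrupole time-of-flight mass spectrometer, in positive and negative ionization mode. A Zorbax Extend-C18 column (2.1 × 50 mm, 1.8 μm) was used at 100 μL/min with water and acetonitrile, each including 0.1% formic acid.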
row,SMILES,RP-LC retention time [s]
1,COc1cccc(-n2c(=O)c(C(=O)NCCc3cccs3)c(O)c3cccnc32)c1,1160
2,O=C(NCc1cc(F)cc(F)c1)C1CCCN(c2nc3ccsc3c(=O)n2Cc2ccccc2)C1 (stereo not given),1050
3,Cc1cc(=O)c(OCc2ccccc2F)cn1CC(=O)NCc1ccco1,593
4,COc1ccccc1-c1nc(Cn2ccn3nc(-c4ccc5c(c4)OCO5)cc3c2=O)c(C)o1,960
5,Cc1cc2oc3c(c(=O)c2cc1C)C(c1ccccc1F)N(c1nccs1)C3=O (stereo not given),1050
6,COCCc1noc(C2CN(S(=O)(=O)c3cccnc3)C2)n1,669
7,O=C(NCc1cccnc1)C1c2ccccc2C(=O)N1Cc1ccccc1 (stereo not given),604
8,Cc1ccc(NC(=O)Cn2cnc3nc(N4CCCC(C(=O)NC5CC5)C4)sc3c2=O)cc1F (stereo not given),703
9,Cc1ccc2c(ccn2CCNC(=O)C2CC(=O)N(c3n[nH]c4ccccc34)C2)c1 (stereo not given),766
10,O=S(=O)(c1ccccc1)N1CCc2nc(-c3ccccc3)ncc2C1,1010
11,N#Cc1ccc(N2C=C(C(=O)N3CCOCC3)S(=O)(=O)c3ccc(Cl)cc32)cc1,764
12,Cc1cc(CNC(=O)C2(c3ccc(F)cc3)CC2)c(C)o1,900
13,Cc1cc(C)cc(NS(=O)(=O)c2cc3c(s2)CCN(C(=O)C2CCC2)C3)c1,962
14,Cn1ccc2cc(CCC(=O)N3CCCC3)ccc21,789
15,CCOc1cccc(-c2noc(-c3nnn4c3COC(c3cccc(OC)c3)C4)n2)c1 (stereo not given),1210
16,Cc1cc(OCC(=O)Nc2cccc(Br)c2)nc(N2CCCC2)n1,682
17,CCOc1cc(C(=O)Nc2ccc(-c3cn4cccnc4n3)cc2)cc(OCC)c1OCC,759
18,COc1cccc(CNC(=O)Cc2csc3nc(-c4cccc(Br)c4)cn23)c1,925
19,O=C(NC1CC1)c1ccc(OCC2CCCN(C(=O)c3ccoc3)C2)cc1 (stereo not given),712
20,COC(=O)c1cn(Cc2ccc(OC)c(F)c2)nc1S(=O)(=O)N1CCCCC1,945
21,COC[C@@H]1CN(Cc2c(C)noc2C)C[C@H]1c1ccccn1,580
22,COc1ccc(-c2nnc(-c3ccc(C)c(S(=O)(=O)NCc4cccs4)c3)o2)cc1OC,917
23,COC(=O)N[C@@H](C)CNc1nccc(-c2cn(C(C)C)nc2-c2cc(Cl)cc(NS(C)(=O)=O)c2F)n1,792
24,Cc1ccc(NC(=O)C2CCN(S(=O)(=O)c3cc(C(=O)N4CCCC4)n(C)c3)CC2)nc1,647
25,CC(=O)N(C1CC1)C1CCOC2(CCN(C(=O)Cc3c(C)noc3C)CC2)C1 (stereo not given),659
26,COc1ccc(CCN2CC(=O)N(c3cccc(C)c3)[C@@H]3CS(=O)(=O)C[C@@H]32)cc1,830

row,SMILES,RP-LC retention time [s]
1,Cc1ccc(CC(=O)Nc2ccc(-c3nc(Cn4cc(C)cn4)c(C)o3)cc2)cc1,962
2,CCOc1ccccc1NC(=O)N1CCC2(CC1)NC(=O)c1cc(C)ccc1N2C,872
3,CCN(Cc1ccccc1)C(=O)CN1C(=O)C(O)(c2cccc(F)c2)c2ccccc21 (stereo not given),655
4,CN(C1CCOCC1)C1CCN(C(=O)c2ccc(Cl)cc2)CC1,589
5,CC(=O)c1ccc(N2CCN(C(=O)Cn3ccc4ccc(-c5nnc(C)o5)cc43)CC2)cc1,764
6,Cc1ccc(-c2noc(-c3cccc(S(=O)(=O)NC4CCCC4)c3)n2)cc1,1360
7,Cc1ccc(CNC(=O)CN2C(=O)CCCc3cc(S(=O)(=O)N4CCC(C)CC4)ccc32)cc1,961
8,CCCCC(C)C(=O)N1CCCN(C2=NS(=O)(=O)C(c3ccc(CC)cc3)=C2C)CC1 (stereo not given),1020
9,CCN1C(=O)c2ccccc2Oc2ccc(C(=O)NCc3ccco3)cc21,843
10,Cc1csc(-c2ccc(N3CCN(C(=O)Cc4cccc(F)c4)CC3)nc2)n1,849
11,CC(=O)N1CCC(C(=O)Nc2nccs2)CC1,584
12,CCOc1ccc(NC(=O)Cn2nc3cc(C)nc(-c4cccc(Cl)c4)n3c2=O)cc1,971
13,CCCC(=O)Nc1ccc2c(c1)CN(C(=O)c1ccccc1)C(C(=O)N(C)C)C2 (stereo not given),671
14,CC1CN(C(=O)CSc2cn(CC(=O)N3CCCCCC3)c3ccccc23)CC(C)O1 (stereo not given),897
15,CC(C)c1nnc(C2CN(Cc3ccc(F)c(Cl)c3)CC23CCN(C)CC3)o1 (stereo not given),591
16,CCOc1ccc(C(=O)NCCc2nc3cccnc3n2CC)cc1,642
17,CC1CCN(C(=O)CN2C(=O)C3CCCCN3c3ccc(S(=O)(=O)N4CCCC4)cc32)CC1 (stereo not given),937
18,CCn1c(=O)c(N2CCN(C(=O)NCc3ccccc3)CC2)nc2ccccc21,820
19,O=c1c2ccccc2c(-c2nc(-c3ccncc3)no2)cn1-c1cccc(F)c1,1050
20,CCOc1ccc(-c2ccc(=O)n(CCc3nc(-c4ccc5c(c4)OCO5)no3)n2)cc1,986
21,CC(=O)N1CCc2cc(N3CC(C(=O)Nc4cccc(Cl)c4C)CC3=O)ccc21 (stereo not given),723
22,COc1ccc(C(CC(=O)N2CCN(c3ccccn3)CC2)N2Cc3ccccc3C2=O)cc1OC (stereo not given),612
23,c1ccc(-c2nc(C3CCN(Cc4cccs4)C3)no2)nc1 (stereo not given),583
24,COc1ccc(C(=O)NC2CCN(c3ccc(F)cc3)C2=O)cc1F (stereo not given),806
25,CC(C)Cn1c(=O)c(C(=O)NCc2ccc(C(F)(F)F)cc2)nc2cccnc21,1050

# Continued, values first:
row,RP-LC retention time [s],SMILES
1,1220,Cc1ccc(-n2c(SCc3nc(-c4ccc(F)cc4)no3)nc3cc4c(cc3c2=O)OCO4)cc1
2,1080,Cc1ccc(-c2cc3c4nnc(SCC(=O)Nc5cc(F)ccc5C)n4ccn3n2)cc1C
3,803,Cc1cccc(N2CCN(C(=O)C3CC(=O)N(c4cccc(NC(=O)C(C)C)c4)C3)CC2)c1 (stereo not given)
4,881,Cc1noc(C)c1-c1ccc(S(=O)(=O)Nc2ccccc2F)cc1
5,1060,Cc1noc2nc(CCC(=O)N3CCc4ccccc43)nc(N3CCCCCC3)c12
6,680,CN(C)C(=O)c1ccc2c(c1)N(CC(=O)Nc1ccccn1)C(=O)C1CCCCN21 (stereo not given)
7,545,O=C(NCc1ccc(N2CCCCC2)cc1)C1CCN(c2nnc3ccccn23)CC1
8,636,Cc1cc(N2CCN(C)CC2)nc2ccc(NC(=S)NCC3(c4ccccc4)CCCC3)cc12
9,807,O=C(c1ccc(F)c(F)c1)N1CCN(S(=O)(=O)c2cc3c4c(c2)CCC(=O)N4CCC3)CC1
10,702,O=C(Cn1nc2ccc(C(=O)NCc3ccccc3)cn2c1=O)NC1CCCC1
11,785,O=C(Nc1ccc(F)cc1)C1CC(=O)N(CCc2c[nH]c3ccc(F)cc23)C1 (stereo not given)
12,590,OC[C@H]1O[C@@H](n2cnc3c(N[C@H]4CCC[C@@H]4O)ncnc32)[C@@H](O)C1O (stereo not given in full)
13,842,O=c1ccc(N2CCCN(S(=O)(=O)c3ccc(F)cc3F)CC2)nn1-c1ccccc1
14,671,COc1ccc2c(c1)c(CN1CCC(C(=O)NCCc3ccco3)CC1)cn2C
15,779,O=S(=O)(c1ccc2c(c1)CCC2)N1CCCC1c1noc(CO)n1 (stereo not given)
16,788,Cn1c(=O)c2cc(C(=O)Nc3ccccc3C(N)=O)cnc2n(-c2ccccc2)c1=O
17,966,C=CCNC(=O)c1nnn(Cc2ccc(C)cc2)c1-n1cccc1

row,RP-LC retention time [s],SMILES
1,798,CCc1noc(NC(C)=O)c1-c1ccc(C)c(S(=O)(=O)Nc2ccccc2F)c1
2,692,O=C(NC(=O)c1ccccc1)OCCN1CCN(c2ncc(C(F)(F)F)cc2Cl)CC1
3,733,Cc1cnc(C(=O)N2CCCC2c2nc(CCOCC3CC3)no2)cn1 (stereo not given)
4,790,Cc1ccc(C(=O)N2C[C@@H](Oc3ccccc3)C[C@H]2C(=O)NC2CC2)s1
5,1160,O=S(=O)(c1cccc(Cl)c1)N1CCC(c2noc(-c3ccccc3)n2)CC1
6,615,CN(C)C(=O)c1ccc2c(c1)N(CC(=O)NCCN1CCCCCC1)C(=O)C1CCCCN21 (stereo not given)
7,705,O=C(NCC1(c2cccs2)CCOCC1)c1cccs1
8,777,Cc1ccc(CNC(=O)C2CCCN2S(=O)(=O)c2cc3c(cc2C)NC(=O)CO3)cc1 (stereo not given)
9,884,COc1ccccc1NC(=O)N1CCC2(CC1)N=C(c1ccc(Cl)cc1)C(=O)N2
10,774,O=C1N(c2cccc(F)c2)C(c2ccccc2)C12CCN(Cc1cccc(F)c1O)CC2 (stereo not given)
11,717,O=C(Nc1ccc2c(c1)CN(C(=O)Nc1ccc3c(c1)OCCO3)CCO2)C1CC1
12,892,COc1ccc(-c2nc(-c3nnn(-c4ccccc4)c3C)no2)cc1OC
13,824,COC(=O)C1=CN(c2ccccc2OC)c2ccccc2S1(=O)=O
14,719,CC(C)N1CCn2cc(S(=O)(=O)Nc3ccc(C#N)cc3)cc2C1=O
15,782,COc1ccc(OCC(=O)Nc2ccc3c(c2)N(C(C)=O)CCC3)cc1
16,800,NS(=O)(=O)c1ccc(CCNCc2ccc(-c3ccc(Cl)cc3Cl)o2)cc1
17,708,Cc1ccc(CNC(=O)C2CCN(S(=O)(=O)c3cc(C(=O)N(C)C)cs3)CC2)o1

# Reference: the METLIN SMRT retention time set (Domingo-Almenara et al. 2019)
